Measured values: patent publication EP4682173A1, “METHOD FOR PRODUCING RADIOLABELED ANTIBODY, RADIOLABELED ANTIBODY, AND RADIOACTIVE MEDICINE” (Kagoshima University, priority 2023, dated 2024)

System: EGFR
Assay: Test Example 7: antigen binding activity by in vitro ARG (^89Zr-labeled Pmab)
Design: species or system human
Conditions: day after production

- binding activity for EGFR: confirmed
Substance: Comparative Example 3: ^89Zr-panitumumab conjugate (monovalent) by the CCAP method
